Measured values from ChEMBL document CHEMBL5291721, “A preclinical secondary pharmacology resource illuminates target-adverse drug reaction associations of marketed drugs” (Nat Commun, 2023).

Assays:
[1] = target: Neuronal acetylcholine receptor subunit alpha-4 (Homo sapiens, UniProt P43681)
[2] = target: Kappa-type opioid receptor (Homo sapiens, UniProt P41145)
Motilin receptor = Motilin receptor (Homo sapiens, UniProt O43193)
Estrogen receptor = target: T1, Estrogen receptor (Homo sapiens, UniProt P03372)
T1 sequence (P03372 whole entry): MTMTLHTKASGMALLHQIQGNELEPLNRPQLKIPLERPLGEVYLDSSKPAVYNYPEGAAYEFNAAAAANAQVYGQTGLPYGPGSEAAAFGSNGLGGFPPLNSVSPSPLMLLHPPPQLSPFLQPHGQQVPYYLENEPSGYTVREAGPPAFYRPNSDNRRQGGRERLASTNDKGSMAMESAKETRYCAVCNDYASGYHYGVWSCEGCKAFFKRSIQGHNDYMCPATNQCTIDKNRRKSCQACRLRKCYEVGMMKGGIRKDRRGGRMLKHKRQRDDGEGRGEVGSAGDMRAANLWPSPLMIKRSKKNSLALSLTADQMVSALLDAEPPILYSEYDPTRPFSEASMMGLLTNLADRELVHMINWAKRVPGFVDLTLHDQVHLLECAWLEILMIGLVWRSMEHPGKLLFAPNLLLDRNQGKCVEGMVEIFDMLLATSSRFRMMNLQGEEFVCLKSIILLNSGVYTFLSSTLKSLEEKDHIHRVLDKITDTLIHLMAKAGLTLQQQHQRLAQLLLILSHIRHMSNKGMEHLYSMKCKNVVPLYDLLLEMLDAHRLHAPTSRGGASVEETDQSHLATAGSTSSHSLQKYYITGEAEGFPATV

[3] = target: Voltage-dependent L-type calcium channel subunit alpha-1C (Rattus norvegicus, UniProt P22002); type: functional
[4] = target: Sodium-dependent noradrenaline transporter (Homo sapiens, UniProt P23975)
B2 bradykinin receptor = target: T2, B2 bradykinin receptor (Homo sapiens, UniProt P30411)
T2 sequence (P30411 whole entry): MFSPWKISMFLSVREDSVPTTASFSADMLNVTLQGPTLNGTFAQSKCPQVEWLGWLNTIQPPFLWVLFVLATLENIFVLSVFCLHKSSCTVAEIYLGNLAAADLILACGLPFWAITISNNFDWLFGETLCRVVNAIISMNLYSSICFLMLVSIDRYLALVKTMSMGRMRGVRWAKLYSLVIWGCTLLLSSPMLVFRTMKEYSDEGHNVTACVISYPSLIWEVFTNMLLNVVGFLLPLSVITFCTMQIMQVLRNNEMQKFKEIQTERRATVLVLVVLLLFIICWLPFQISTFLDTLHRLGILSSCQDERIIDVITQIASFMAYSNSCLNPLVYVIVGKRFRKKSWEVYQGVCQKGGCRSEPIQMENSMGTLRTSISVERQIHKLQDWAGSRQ

Adenosine receptor A3 = target: T3, Adenosine receptor A3 (Homo sapiens, UniProt P0DMS8)
T3 sequence (P0DMS8 whole entry): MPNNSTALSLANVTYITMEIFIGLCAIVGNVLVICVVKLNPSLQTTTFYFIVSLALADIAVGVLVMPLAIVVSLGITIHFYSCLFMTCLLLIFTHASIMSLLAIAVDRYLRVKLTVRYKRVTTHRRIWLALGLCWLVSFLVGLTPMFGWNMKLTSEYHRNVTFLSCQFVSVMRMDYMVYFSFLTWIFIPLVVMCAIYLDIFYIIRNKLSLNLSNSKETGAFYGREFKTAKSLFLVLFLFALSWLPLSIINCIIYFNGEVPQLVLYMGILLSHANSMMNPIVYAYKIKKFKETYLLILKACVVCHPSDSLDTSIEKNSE

[5] = target: Beta-2 adrenergic receptor (Homo sapiens, UniProt P07550)
Histamine H1 receptor = Histamine H1 receptor (Homo sapiens, UniProt P35367)
[6] = target: T4, Muscarinic acetylcholine receptor M2 (Homo sapiens, UniProt P08172); type: functional, cell-based
T4 sequence (P08172 whole entry): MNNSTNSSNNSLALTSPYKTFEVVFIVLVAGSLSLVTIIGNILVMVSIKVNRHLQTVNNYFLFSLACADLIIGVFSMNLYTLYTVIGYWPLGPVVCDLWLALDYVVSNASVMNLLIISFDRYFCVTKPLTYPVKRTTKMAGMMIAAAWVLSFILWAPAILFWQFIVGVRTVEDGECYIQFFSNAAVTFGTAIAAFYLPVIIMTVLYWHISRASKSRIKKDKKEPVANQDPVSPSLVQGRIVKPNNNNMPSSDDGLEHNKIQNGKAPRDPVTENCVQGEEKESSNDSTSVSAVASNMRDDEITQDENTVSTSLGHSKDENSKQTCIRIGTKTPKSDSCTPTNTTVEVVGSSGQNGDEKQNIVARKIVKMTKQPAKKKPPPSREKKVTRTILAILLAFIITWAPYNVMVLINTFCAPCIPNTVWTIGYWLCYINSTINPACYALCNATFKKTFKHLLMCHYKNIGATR

[7] = target: T5, Gastrin/cholecystokinin type B receptor (Homo sapiens, UniProt P32239)
T5 sequence (P32239 whole entry): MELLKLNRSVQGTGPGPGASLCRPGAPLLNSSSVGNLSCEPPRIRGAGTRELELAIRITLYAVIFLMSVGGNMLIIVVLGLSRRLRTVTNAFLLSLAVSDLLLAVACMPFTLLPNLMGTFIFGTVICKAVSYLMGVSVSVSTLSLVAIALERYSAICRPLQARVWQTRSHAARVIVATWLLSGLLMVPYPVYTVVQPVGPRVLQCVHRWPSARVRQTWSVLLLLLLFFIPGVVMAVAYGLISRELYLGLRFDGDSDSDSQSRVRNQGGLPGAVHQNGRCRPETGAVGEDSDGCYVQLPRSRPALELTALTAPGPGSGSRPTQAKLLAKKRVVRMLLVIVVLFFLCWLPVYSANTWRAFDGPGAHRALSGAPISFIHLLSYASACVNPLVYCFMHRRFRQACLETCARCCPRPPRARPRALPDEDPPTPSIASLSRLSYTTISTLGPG
Further: assay procedure not described here.

Chain of Sodium-dependent noradrenaline transporter (P23975 whole entry): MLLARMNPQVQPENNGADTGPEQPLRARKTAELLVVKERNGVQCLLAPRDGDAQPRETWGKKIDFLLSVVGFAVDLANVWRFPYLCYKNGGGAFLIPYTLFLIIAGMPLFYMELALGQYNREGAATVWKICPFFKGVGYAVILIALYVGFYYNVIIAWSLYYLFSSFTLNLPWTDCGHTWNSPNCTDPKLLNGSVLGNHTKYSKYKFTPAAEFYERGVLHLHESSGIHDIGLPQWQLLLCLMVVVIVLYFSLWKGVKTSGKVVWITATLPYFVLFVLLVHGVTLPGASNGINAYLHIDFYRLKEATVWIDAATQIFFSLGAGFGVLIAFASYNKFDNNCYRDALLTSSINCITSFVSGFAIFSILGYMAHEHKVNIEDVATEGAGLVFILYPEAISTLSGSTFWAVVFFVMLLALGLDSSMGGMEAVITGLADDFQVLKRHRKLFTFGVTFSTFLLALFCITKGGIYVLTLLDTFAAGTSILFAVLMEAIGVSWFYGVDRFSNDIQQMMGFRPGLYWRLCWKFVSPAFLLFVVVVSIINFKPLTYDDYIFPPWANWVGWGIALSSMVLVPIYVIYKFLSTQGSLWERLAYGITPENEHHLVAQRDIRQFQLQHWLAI
Chain of Kappa-type opioid receptor (P41145 whole entry): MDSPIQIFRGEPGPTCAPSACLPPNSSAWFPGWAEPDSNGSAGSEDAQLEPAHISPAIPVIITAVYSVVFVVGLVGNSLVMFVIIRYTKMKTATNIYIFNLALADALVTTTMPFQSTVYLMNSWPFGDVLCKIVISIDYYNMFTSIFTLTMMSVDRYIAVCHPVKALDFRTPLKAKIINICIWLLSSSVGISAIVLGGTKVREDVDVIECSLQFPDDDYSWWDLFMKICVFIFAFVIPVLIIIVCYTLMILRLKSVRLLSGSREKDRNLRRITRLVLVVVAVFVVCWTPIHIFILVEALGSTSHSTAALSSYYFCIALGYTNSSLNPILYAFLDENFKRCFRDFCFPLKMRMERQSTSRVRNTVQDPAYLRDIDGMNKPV
Chain of Motilin receptor (O43193 whole entry): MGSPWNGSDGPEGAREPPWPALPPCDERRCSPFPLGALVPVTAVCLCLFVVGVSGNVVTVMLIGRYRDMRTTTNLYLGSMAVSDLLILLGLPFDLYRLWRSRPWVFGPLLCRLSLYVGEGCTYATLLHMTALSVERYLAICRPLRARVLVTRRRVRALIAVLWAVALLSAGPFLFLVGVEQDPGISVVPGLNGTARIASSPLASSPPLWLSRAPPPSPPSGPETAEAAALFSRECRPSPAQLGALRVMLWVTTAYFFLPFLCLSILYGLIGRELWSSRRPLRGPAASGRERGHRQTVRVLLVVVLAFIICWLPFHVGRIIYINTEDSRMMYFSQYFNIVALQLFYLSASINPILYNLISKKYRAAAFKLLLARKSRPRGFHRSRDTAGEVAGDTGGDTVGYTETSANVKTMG
Chain of Neuronal acetylcholine receptor subunit alpha-4 (P43681 whole entry): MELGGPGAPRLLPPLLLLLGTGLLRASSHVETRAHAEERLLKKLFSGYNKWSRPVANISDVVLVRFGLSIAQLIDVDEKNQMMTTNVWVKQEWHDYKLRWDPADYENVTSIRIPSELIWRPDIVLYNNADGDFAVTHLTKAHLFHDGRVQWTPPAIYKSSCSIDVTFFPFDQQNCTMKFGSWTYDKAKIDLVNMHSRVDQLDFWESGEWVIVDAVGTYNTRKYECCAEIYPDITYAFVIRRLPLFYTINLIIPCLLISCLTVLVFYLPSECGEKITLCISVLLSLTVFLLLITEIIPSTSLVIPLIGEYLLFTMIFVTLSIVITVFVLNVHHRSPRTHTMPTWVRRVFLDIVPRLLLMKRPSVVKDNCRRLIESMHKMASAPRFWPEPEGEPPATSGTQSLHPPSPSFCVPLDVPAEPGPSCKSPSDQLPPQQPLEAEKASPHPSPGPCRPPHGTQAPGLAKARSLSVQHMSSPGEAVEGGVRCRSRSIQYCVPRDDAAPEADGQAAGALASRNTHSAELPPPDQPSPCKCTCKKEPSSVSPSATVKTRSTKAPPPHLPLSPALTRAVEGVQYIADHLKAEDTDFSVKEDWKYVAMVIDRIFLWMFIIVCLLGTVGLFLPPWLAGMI
Chain of Voltage-dependent L-type calcium channel subunit alpha-1C (P22002 whole entry): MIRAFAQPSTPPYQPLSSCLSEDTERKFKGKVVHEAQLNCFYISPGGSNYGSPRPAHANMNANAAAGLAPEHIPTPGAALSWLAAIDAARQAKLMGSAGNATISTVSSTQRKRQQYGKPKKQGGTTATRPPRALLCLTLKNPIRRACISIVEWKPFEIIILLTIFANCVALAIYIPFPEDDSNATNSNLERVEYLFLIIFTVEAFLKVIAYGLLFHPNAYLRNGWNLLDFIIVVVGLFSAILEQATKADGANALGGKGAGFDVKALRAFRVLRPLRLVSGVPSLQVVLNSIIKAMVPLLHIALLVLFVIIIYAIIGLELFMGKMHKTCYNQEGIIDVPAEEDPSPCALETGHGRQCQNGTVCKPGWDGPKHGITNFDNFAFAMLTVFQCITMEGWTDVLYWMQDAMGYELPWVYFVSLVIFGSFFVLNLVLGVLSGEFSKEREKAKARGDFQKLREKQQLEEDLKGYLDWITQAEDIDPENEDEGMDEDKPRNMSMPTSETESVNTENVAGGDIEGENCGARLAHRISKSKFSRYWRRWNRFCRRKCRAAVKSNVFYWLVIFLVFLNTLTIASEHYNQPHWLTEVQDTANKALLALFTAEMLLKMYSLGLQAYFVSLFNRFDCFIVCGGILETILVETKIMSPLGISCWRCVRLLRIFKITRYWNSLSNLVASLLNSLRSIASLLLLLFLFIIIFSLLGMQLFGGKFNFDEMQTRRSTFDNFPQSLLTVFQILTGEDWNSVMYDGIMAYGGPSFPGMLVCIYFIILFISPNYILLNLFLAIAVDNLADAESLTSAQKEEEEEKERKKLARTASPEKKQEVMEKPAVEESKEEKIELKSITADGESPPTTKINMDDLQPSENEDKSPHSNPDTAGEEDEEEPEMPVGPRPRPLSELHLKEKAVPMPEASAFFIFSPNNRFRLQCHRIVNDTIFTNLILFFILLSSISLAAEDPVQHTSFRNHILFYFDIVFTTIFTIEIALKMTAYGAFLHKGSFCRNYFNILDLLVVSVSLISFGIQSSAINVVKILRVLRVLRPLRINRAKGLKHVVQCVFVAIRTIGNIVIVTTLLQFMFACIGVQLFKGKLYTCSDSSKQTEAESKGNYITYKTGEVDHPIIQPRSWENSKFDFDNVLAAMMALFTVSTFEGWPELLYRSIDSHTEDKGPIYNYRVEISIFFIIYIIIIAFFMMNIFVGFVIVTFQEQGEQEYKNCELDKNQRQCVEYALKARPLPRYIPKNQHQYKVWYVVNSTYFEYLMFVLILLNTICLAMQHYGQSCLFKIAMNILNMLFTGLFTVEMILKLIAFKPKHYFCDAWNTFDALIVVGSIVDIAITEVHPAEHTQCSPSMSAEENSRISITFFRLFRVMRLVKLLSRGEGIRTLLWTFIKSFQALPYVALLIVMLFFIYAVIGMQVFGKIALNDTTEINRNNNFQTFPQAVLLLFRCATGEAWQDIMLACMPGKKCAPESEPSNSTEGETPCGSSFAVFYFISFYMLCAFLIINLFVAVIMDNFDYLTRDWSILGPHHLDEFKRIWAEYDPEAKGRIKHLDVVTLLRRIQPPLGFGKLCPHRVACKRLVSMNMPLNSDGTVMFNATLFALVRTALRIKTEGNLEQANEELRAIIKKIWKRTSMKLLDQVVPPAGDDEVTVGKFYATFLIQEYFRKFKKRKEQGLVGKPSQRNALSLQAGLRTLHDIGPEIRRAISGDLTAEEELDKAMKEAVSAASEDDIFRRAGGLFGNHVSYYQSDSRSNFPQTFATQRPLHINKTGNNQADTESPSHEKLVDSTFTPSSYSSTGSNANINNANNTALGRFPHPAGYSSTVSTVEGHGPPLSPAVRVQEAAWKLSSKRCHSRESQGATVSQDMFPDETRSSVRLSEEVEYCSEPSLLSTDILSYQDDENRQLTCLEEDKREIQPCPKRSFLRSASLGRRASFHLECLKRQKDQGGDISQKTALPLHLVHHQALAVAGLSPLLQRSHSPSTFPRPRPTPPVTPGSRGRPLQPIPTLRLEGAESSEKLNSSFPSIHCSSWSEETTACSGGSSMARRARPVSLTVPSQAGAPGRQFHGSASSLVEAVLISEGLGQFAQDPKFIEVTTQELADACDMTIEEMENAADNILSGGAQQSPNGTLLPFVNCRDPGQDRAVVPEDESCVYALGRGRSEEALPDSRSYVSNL
Chain of Beta-2 adrenergic receptor (P07550 whole entry): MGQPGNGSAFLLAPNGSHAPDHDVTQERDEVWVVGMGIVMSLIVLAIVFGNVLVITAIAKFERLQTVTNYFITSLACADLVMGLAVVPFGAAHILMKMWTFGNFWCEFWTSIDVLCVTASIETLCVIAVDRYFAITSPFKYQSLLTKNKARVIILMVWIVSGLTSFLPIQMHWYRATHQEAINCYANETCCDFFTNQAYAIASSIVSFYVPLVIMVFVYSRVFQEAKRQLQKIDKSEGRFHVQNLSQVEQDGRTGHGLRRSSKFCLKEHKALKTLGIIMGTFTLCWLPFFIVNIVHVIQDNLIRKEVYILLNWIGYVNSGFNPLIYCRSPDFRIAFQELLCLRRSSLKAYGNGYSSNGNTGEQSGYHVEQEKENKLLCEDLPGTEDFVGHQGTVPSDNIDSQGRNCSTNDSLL

Row | Compound | AC50 [1] [µM] | AC50 [2] [µM] | AC50 (Motilin receptor) [µM] | AC50 (Estrogen receptor) [µM] | AC50 [3] [µM] | AC50 [4] [µM] | AC50 (B2 bradykinin receptor) [µM] | AC50 (Adenosine receptor A3) [µM] | AC50 [5] [µM] | AC50 (Histamine H1 receptor) [µM] | AC50 [6] [µM] | AC50 [7] [µM]
1 | CC1(C)C(C=C(Cl)Cl)C1C(=O)OCc1cccc(Oc2ccccc2)c1 (stereo not drawn) [PERMETHRIN] | > 10 | > 10 | > 10 | > 30 | > 10 | > 10 | > 10 | > 10 | > 10 | > 10 | > 10 | –
2 | Cc1ccc(=O)n(-c2ccccc2)c1 [PIRFENIDONE] | > 30 | > 30 | > 30 | > 30 | – | > 30 | > 30 | > 30 | > 30 | > 30 | > 30 | > 30
3 | NC(=O)CCC/N=C(\c1ccc(Cl)cc1)c1cc(F)ccc1O [PROGABIDE] | > 10 | > 10 | > 10 | > 10 | > 10 | > 10 | > 10 | > 10 | > 10 | > 10 | > 10 | –
4 | Cc1ccc2c(-c3ccccc3)nc(=O)n(C(C)C)c2c1 [PROQUAZONE] | > 30 | > 30 | > 30 | > 30 | – | > 30 | > 10 | 23 | > 30 | > 30 | > 30 | > 30
5 | Cc1cc2nc3c(=O)[nH]c(=O)nc-3n(C[C@H](O)[C@H](O)[C@H](O)COP(=O)(O)O)c2cc1C [RIBOFLAVIN 5'-PHOSPHATE] | > 30 | > 30 | > 30 | 3.7 | 15 | > 30 | > 30 | > 30 | > 30 | > 30 | – | > 30
6 | CN1c2ccccc2C(NCCCCCCC(=O)O)c2ccc(Cl)cc2S1(=O)=O (stereo not drawn) [TIANEPTINE] | > 30 | > 30 | > 30 | > 30 | – | > 30 | > 30 | > 30 | > 30 | > 30 | > 30 | > 30
7 | C=CC(N)CCC(=O)O (stereo not drawn) [VIGABATRIN] | > 10 | > 10 | > 10 | > 10 | > 10 | 21.7 | > 10 | > 10 | > 10 | > 10 | > 10 | –
8 | N#C[C@@H]1CCCN1C(=O)CNC12CC3CC(CC(O)(C3)C1)C2 [VILDAGLIPTIN] | > 10 | > 30 | > 10 | > 30 | – | > 30 | > 30 | > 30 | > 10 | > 30 | > 30 | > 30
